The test system of the test is BOIVE: whitehead broom (Borerria verticillata). Nature of the test: Postemergence herbicidal activity of mixtures in the field, visual weed control. It counts as in vivo. As to conditions: postemergence field trial. On the procedure: Field trials were conducted in Brazil in pasture area cultivated with Brachiaria brizantha using standard herbicide small-plot research methodology. The plot size used was 3 meters (m)×8 m (width×length) with 4 replicates per treatment. The pasture was grown using normal cultural practices for fertilization, management, and maintenance to ensure good growth of the crop and the weeds. […] All treatment results, both for the single product and mixtures, are an average of 3 to 4 replicates and the tank-mix interactions are significant at the […] level. Colby's equation was used to determine the herbicidal effects expected from the mixtures (Colby, S. R. Calculation of the synergistic and antagonistic response of herbicide combinations. […] However, the experiments described herein were performed such that active ingredients B and C were combined and only the efficacy of the combination was determined. As such, Colby's equation simplifies to Expected=A+Z−(AZ/100) A=observed efficacy of active ingredient A (flumioxazin) at the same concentration as used in the mixture; […] All comparisons are an average of 3 to 4 replicates and are significant at the […] level.

Regarding `C#CCN1C(=O)COc2cc(F)c(N3C(=O)C4=C(CCCC4)C3=O)cc21` [Flumioxazin, 2-[7-fluoro-3,4-dihydro-3-oxo-4-(2-propyn-1-yl)-2H-1,4-benzoxazin-6-yl]-4,5,6,7-tetrahydro-1H-isoindole-1,3(2H)-dione], the “% Visual Control BOIVE (281 DAA) Obs” value (Flumioxazin 25 g ai/ha alone) is reported as 0%; the “% Visual Control BOIVE (281 DAA) Obs” value (Flumioxazin 50 g ai/ha alone) is listed as 0%; the “% Visual Control BOIVE (281 DAA) Obs” value (Flumioxazin 75 g ai/ha alone) turned out to be 4%; the “% Visual Control BOIVE (281 DAA) Obs” value (Flumioxazin 100 g ai/ha alone) is recorded as 13%; the “% Visual Control BOIVE (281 DAA) Obs” value (Flumioxazin 125 g ai/ha alone) came to 14%.

Values taken from patent publication US20150173364A1, “HERBICIDAL COMPOSITIONS CONTAINING FLUMIOXAZIN, AMINOPYRALID AND FLUROXYPYR OR 2,4-D” (Dow AgroSciences LLC, priority 2013, published 2015).
